{"source": "patent US20060275372A1", "about": "(Elan Pharma International Limited, priority 2005, published 2006)", "origin": "cited, not measured here", "settings": "fasting state as compared to the fed state", "note": "Structures can show the parent of a compound that is named as a salt."}
{"smiles": "Cc1ccc(NC(=O)c2ccc(CN3CCN(C)CC3)cc2)cc1Nc1nccc(-c2cccnc2)n1", "note": "[Imatinib mesylate, 4-[(4-Methyl-1-piperazinyl)methyl]-N-[4-methyl-3-[[4-(3-pyridinyl)-2-pyrimidinyl]amino]-phenyl]benzamide methanesulfonate]", "values": [{"measurement": "bioavailability", "result": "limited bioavailability"}]}
